These results are taken from patent US10759785B2, “Compounds” (ENTERPRISE THERAPEUTICS LIMITED, priority 2016, dated 2020).

Data set [1] addresses T1, ENaC (Homo sapiens, UniProt P37088+P51168+P51170).
T1 construct: Human bronchial epithelial cells (HBECs) (Lonza, UK) were cultured; host or cells: primary human bronchial epithelial cells (HBECs) differentiated at an air-liquid interface
T1 sequence (P37088 1-669): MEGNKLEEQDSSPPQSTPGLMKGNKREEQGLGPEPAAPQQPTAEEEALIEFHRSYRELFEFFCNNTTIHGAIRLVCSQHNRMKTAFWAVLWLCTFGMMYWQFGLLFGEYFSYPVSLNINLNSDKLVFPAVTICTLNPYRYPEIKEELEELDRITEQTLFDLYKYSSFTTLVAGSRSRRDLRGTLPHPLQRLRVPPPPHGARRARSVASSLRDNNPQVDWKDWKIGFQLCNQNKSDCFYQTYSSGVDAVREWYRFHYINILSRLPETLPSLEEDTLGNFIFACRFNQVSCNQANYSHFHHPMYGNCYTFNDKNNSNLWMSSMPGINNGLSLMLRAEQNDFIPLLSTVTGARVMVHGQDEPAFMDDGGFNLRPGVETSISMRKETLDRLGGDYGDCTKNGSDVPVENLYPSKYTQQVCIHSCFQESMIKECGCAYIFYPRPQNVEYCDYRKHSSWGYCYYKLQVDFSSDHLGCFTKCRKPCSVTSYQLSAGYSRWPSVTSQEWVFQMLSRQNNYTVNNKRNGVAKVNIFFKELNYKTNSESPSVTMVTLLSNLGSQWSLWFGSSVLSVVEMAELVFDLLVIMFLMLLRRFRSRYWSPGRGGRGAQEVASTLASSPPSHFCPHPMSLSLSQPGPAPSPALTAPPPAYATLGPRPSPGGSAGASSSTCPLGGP
T1 sequence (P51168 1-640): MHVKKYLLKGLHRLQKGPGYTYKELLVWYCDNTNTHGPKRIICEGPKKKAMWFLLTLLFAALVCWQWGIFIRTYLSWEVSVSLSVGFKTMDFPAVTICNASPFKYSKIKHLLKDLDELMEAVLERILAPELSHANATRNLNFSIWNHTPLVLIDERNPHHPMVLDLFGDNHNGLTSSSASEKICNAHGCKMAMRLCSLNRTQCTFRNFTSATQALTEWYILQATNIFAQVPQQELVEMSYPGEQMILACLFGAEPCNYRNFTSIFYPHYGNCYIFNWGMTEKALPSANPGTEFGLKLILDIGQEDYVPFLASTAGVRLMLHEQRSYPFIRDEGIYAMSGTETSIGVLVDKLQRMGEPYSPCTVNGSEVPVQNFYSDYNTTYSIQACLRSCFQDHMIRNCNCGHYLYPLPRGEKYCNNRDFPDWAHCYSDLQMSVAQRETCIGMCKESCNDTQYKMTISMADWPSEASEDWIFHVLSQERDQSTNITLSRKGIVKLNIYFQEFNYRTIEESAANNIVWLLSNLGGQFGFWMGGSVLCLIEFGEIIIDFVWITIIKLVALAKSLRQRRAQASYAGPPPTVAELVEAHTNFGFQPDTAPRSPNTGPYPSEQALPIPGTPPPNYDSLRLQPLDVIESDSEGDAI
T1 sequence (P51170 1-649): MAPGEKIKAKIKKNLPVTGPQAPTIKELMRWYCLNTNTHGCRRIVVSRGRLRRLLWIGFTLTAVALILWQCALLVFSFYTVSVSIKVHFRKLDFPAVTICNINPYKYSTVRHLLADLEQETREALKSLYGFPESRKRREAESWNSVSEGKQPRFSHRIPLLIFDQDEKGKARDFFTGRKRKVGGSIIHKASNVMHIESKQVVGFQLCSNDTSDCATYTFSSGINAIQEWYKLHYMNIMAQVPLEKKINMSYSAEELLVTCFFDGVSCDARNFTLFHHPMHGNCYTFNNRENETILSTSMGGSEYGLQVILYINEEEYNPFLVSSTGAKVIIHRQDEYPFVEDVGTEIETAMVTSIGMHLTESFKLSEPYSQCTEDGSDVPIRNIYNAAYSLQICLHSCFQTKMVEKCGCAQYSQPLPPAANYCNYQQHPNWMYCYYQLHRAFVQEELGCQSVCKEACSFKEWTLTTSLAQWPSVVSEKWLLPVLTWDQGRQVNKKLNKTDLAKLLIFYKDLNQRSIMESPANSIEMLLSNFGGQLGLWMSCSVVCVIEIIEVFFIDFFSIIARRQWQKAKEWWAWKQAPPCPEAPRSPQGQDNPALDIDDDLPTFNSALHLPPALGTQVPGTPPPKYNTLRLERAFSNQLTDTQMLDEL
The conditions noted are these: cited from earlier work.

The nature of data set [2]: Microsomal stability (rat microsomes). The class given is in vitro ADME. The conditions noted are these: pH 7.4, 1 μM test compound, 0.5 mg/mL protein, 1 mM NADPH, 37° C., read-out: Averages. Mic Half Life Rat. The method, then:
(§1) Example 28—Microsomal Stability
(§2) Microsomes (rat and human) were obtained from Bioreclamation. Test compound stock solutions in DMSO (10 mM) were diluted with DMSO to 2 mM. Further dilution was completed to achieve a 100 μM stock (final concentrations; 91.5% Acetonitrile: 8.5% DMSO). Final test compound concentration in incubation was 1 μM (<0.1% DMSO). The following probe substrates were used: verapamil, propranolol, metoprolol and phenacetin (rat) at a final incubation concentration of 1 μM. Assay buffer—Solution 1: 17.4 g potassium phosphate dibasic anhydrous (K2HPO4, 0.1 M) dissolved in 1 L deionised water. Solution 2: 13.6 g potassium phosphate monobasic anhydrous (KH2PO4, 0.1 M) dissolved in 1 L deionised water. Potassium phosphate solutions 1 and 2 were combined to form a pH 7.42 solution at 37° C. pH 7.4 with 2 mM magnesium chloride. NADPH (10 mM)—diluted in deionised water. Frozen microsomes were thawed at 37° C. Microsomes were diluted in assay buffer to achieve a final protein concentration of 0.5 mg/mL and 1 mM NADPH. The following procedure was completed on a Perkin Elmer Janus robotic platform in 96 well format: The microsomal incubation plate was transferred to a heater shaker at 300 rpm and solution heated to 37° C. for 10 min pre-warm. A no co-factor control at 0 and 45 min and one replicates of each test compound was included in every assay. Microsomes were incubated at 37° C., on a shaker set at 300 rpm throughout the assay. At each timepoint (0, 5, 15, 30, 45 min) 50 μL of sample was removed from the 96-well and added to 200 μL of quench solution (acetonitrile containing 0.1% formic acid and imipramine/labetalol, 200 nM). Samples were diluted 1:1 with water using the Janus Robot and analysed by LC-MS/MS.

A short description of data set [3]: Hepatic stability (rat cryopreserved hepatocytes). The format is in vitro ADME. The conditions noted are these: pH 7.4, 1 μM test compound, 1×10^6 cells/mL, 37° C., read-out: Averages. Hep Half Life Rat. The method, then: (§3) Example 29—Hepatic Stability
(§4) Cryopreserved hepatocytes (rat and human) were obtained from Bioreclamation. Test compound stock solutions in DMSO (10 mM) were diluted with DMSO to 4 mM. Further dilution was completed to achieve a 100 μM stock (5 μL of 4 mM in 195 μL of 50:50 DMSO:hepatocyte buffer). Final test compound concentration in incubation was 1 μM. The following probe substrates were used: testosterone and carbamazepine at a final incubation concentration of 1 μM. Hepatocyte buffer was prepared (Williams E media containing phenol red and Glutamax™, 15 mM HEPES, warmed to 37° C., pH7.4 with NaOH). Cells were removed from liquid nitrogen, thawed in a waterbath, decanted into 50 mL of pre-warmed Cryopreserved Hepatocyte Recovery Media (LifeTechnologies) and centrifuged. Supernatant fraction was removed, cells were re-suspended in hepatocyte buffer and counted by trypan blue exclusion. Cell viability of >80% was required for all assays. Cells were re-suspended to 1×10^6/mL and 198 μL cell suspension added to each 96-well. 2 μL of 100 μM compound stock solution was added to relevant wells to initiate the incubation. A no cell control and two replicates of each test compound was included in every assay. Cells were incubated at 37° C., on a shaker set at 300 rpm. At each timepoint (0, 15, 30, 45, 60, 90 min) 20 μL of sample was removed from the 96-well and added to 80 μL of quench solution (acetonitrile containing 0.1% formic acid and imipramine/labetalol, 200 nM). Samples were diluted 1:1 with water using the Janus Robot and analysed by LC-MS/MS.

A short description of data set [4]: Microsomal stability (human microsomes). The format is in vitro ADME. To be noted: pH 7.4, 1 μM test compound, 0.5 mg/mL protein, 1 mM NADPH, 37° C., read-out: Averages. Mic Half Life Human. The method, then: as §1, §2
A short description of data set [5]: Hepatic stability (human cryopreserved hepatocytes). The class given is in vitro ADME. The conditions noted are these: cryopreserved hepatocytes, pH 7.4, 1 μM test compound, 1×10^6 cells/mL, 37° C., read-out: Averages. Hep Half Life Human. The method, then:
as §3, §4

Data set [6] addresses T1, ENaC. The data set is described as follows: Short circuit current assay to determine ENaC blocker potency in human bronchial epithelial cells. The conditions noted are these: 50% inhibition of total amiloride-sensitive ISC, HBECs, apical addition; read-out: Averages. ENaC Ic50 μm Avg. The format is cell-based. The method, then: Example 27—Short Circuit Current Assay to Determine ENaC Blocker Potency in Human Bronchial Epithelial Cells
Human bronchial epithelial cells (HBECs) (Lonza, UK) were cultured using a modification of the method described by Coote et al, (2008). Cells were seeded into plastic T-75 flasks and grown in Bronchial Epithelial Cell Growth Medium (BEGM) (Lonza, UK) supplemented with bovine pituitary extract (52 ng/mL), hydrocortisone (0.5 μg/mL), human recombinant Epidermal Growth Factor (0.5 ng/mL), epinephrine (0.5 ng/mL), transferrin (10 ng/mL), insulin (5 ng/mL), retinoic acid (0.1 ng/mL), triiodothyronine (6.5 ng/mL), gentamycin (50 μg/mL) and amphotericin-B (50 ng/mL). Medium was changed every 48 hours until cells were 90% confluent. Cells were then passaged and seeded (8.25×10^5 cells/insert) onto polycarbonate Snapwell™ inserts (Costar, UK) in differentiation media containing 50% DMEM in BGEM with the same supplements as above but without triiodothyronine and a final retinoic acid concentration of 50 nM (all-trans retinoic acid; Sigma-Aldrich, UK). Cells were maintained submerged for the first 7 days in culture after which time they were exposed to an apical air interface for the remainder of the culture period. From the first day of establishment of an ALI, HBEC were fed with a DMEM:HAMS F-12 (1:1) media containing 2% Ultroser G (Pall BioSepra, France) with gentamycin (50 μg/mL) and amphotericin B (50 ng/mL). Cells were used for short-circuit current assay between days 14-21 after the establishment of the ALI. At all stages of culture, cells were maintained at 37′C in 5% CO2 in an air incubator.
Short-Circuit Current (ISC) Measurements
Snapwell inserts were mounted in Costar Vertical Diffusion Chambers (Costar, UK) and were bathed with continuously gassed Ringer solution (5% CO2 in O2; pH 7.4) maintained at 37° C. containing (in mM): 120 NaCl, 25 NaHCO3, 3.3 KH2PO4, 0.8 K2HPO4, 1.2 CaCl2, 1.2 MgCl2 and 10 glucose. The solution osmolarity was always between 280-300 mOsm/kg H2O for all physiological salt solutions used. Cells were voltage clamped to 0 mV (model EVC4000, WPI). Transepithelial resistance (RT) was measured by applying a 2 mV pulse at 30 s intervals and calculating RT by Ohm's law. Data were recorded using a PowerLab workstation (ADInstruments, UK).
ENaC blocker compounds were added to the apical chamber from a 1000-fold stock solution (prepared in DMSO) to achieve a cumulative concentration response in terms of the inhibition of the basal ISC. At the completion of the concentration response, a supra-maximal concentration of amiloride (10 μM) was added. The concentration of test compound that induced a 50% inhibition of the total amiloride-sensitive ISC (IC50) was calculated using GraphPad Prism v6.05.

As to `N=C(N)NC(=O)c1nc(Cl)c(N)nc1N` [Amiloride], the “Effect on MCC” value at ENaC [1] (healthy controls and patients with CF) was “increase MCC”. In addition, the “Effect on clinical endpoints” value on ENaC [1] (inhaled amiloride) is reported as “lack of a robust effect”.
With `CCn1c(CNC(=O)c2nc(Br)cnc2N)[n+](C)c2ccc(OC)cc21.[I-]` [Example 1, 2-{[(3-amino-6-bromopyrazin-2-yl)formamido]methyl}-1-ethyl-6-methoxy-3-methyl-1H-1,3-benzodiazol-3-ium iodide], the half-life at 1 μM in data set [2] worked out at 3 min; in data set [3], 6 min; in data set [4], 12 min; in data set [5], 44 min.
With `CCn1c(CNC(=O)c2nc(Br)cnc2N)[n+](CC)c2ccc(C(=O)O)cc21` [Example 16, 2-{[(3-amino-6-bromopyrazin-2-yl)formamido]methyl}-6-carboxy-1,3-diethyl-1H-1,3-benzodiazol-3-ium bromide], the IC50 at ENaC [6] turned out to be 14 nM.

The term half-life denotes the time in which the quantity being followed falls by half. The term IC50 denotes the point on the concentration scale where inhibition reaches its midpoint.
